We go through two substances from patent publication US6593511B1, “Models of chronic and acute inflammatory diseases” (Bioseek, Inc., priority 2000, dated 2003).

The test system of assay [1] is psoriatic scid/scid mice. The assay can be described thus: Treatment of established chronic skin inflammation (psoriasis) in scid/scid mice after transfer of CD4+/CD25- T cells and LPS; ear thickness and histology. Type of assay: in vivo, mouse. An excerpt:
Mice. Female Balb/c mice (donor mice) were purchased from Jackson Labs (Bar Harbor, Me.) or similar source, and C.B-17/Icr scid/scid (recipient mice) were purchased from Taconic (Germantown, N.Y.) or Charles River. All mice were housed in a specific pathogen free environment and were used between 4-8 wk of age. Mice were housed 2-5 per microisolator. All scid/scid mice were handled with gloves under a class II hood, fed sterile food and water ad libitum, and maintained in sterilized microisolators that are changed twice weekly. Donor mice were housed in conventional cages that were changed weekly.
Induction of chronic skin inflammation. Briefly, splenocytes were collected from 5-10 week old donor mice (Balb/c) and donor population was either enriched for CD4+ and depleted of CD25+ cells, or depleted of CD25+ cells only. The collected cell population was injected subcutaneously (s.c.) into C.B-17/Icr scid/scid mice, aged 4-8 weeks (usually 3×10^5 to 5×10^5 cells per mouse in 200-400 μL). […]
Cell Selection: Balb/c mouse spleens were collected and homogenized by pressing through 100 μ cell strainer (Falcon) and suspended in cold PBS supplemented with 10% FBS. […] The resultant cell quantities were 5-8 million cells per spleen. […]
The thickness of the skin on the ear was measured using a Dyer micrometer. […]

Assay [2] relates to scid/scid mice. Nature of the assay: Effect of co-factors on disease induction in the scid/scid CD4+/CD25- transfer model. The format is in vivo, mouse. The settings on record: 20 μg s.c. on day one after cell transfer. How it is done:
Induction of chronic skin inflammation. Briefly, splenocytes were collected from 5-10 week old donor mice (Balb/c) and donor population was either enriched for CD4+ and depleted of CD25+ cells, or depleted of CD25+ cells only. The collected cell population was injected subcutaneously (s.c.) into C.B-17/Icr scid/scid mice, aged 4-8 weeks (usually 3×10^5 to 5×10^5 cells per mouse in 200-400 μL). A systemic (s.c., i.p. or i.v.) injection of an immuno-modulating agent was given 24 hours following cell transfer. Alternatively, these co-injections were given at the same time to one week after. The co-injection was, alternatively, repeated every other day or once a week for the entire course of the experiment.
After 24 hours all recipient mice were given a co-injection of 20 μg LPS (or 10 μg SEB) s.c. Disease causing T cells then proliferated and began to induce inflammation over a period of 4 weeks
The thickness of the skin on the ear was measured using a Dyer micrometer. The micrometer was first modified to better perform in the measurement of soft tissue. The contact pads are reduced to 4 mm, and the spring tension is reduced to <3 lbs.
Co-factor injections are important for their mitogenic properties. […]
The effect of different co-factors on disease induction was assessed. […]

With methylprednisone, the “skin thickness after treatment” value in assay [1] (after 8 days of 40 mg/kg twice/day, p=2.01×10^−6) was 22.4 μm. Also, in assay [1] (baseline before 40 mg/kg twice/day for 8 days), the “skin thickness before treatment” value was 33.7 μm.

lipopolysaccharide [LPS] showed an incidence of disease in assay [2] (5/5) of 100%. For the same substance, the average ear thickness in assay [2] (week 7, n=5 mice, +/- SEM, 30 μm+/−1.2 without co-factor, p=3.6×10^−3) was 36.4 μm.
